≈ marks a conversion by molar mass, not a printed value. Entries after “also recorded” stand apart in the source; their conditions may differ. Where two headings read alike, the source gives them in different places.
Assays:
[1] = test system: K. pneumoniae Kp233; assay: Minimum inhibitory concentration (MIC); conditions: for MIC: Klebsiella pneumoniae
[2] = test system: E. coli urine isolate EC236; assay: Minimum inhibitory concentration (MIC); conditions: Escherichia coli, read-out: Minimum inhibitory concentration (MIC)
[3] = test system: CR-K. pneumoniae (ATCC BAA-1705); assay: Minimum inhibitory concentration (MIC); conditions: for Minimum inhibitory concentration (MIC): CR-K. pneumoniae ATCC BAA-1705, PAβN + (40 μg/mL); for MIC: Klebsiella pneumoniae
[4] = test system: E. coli urine isolate EC235; assay: Minimum inhibitory concentration (MIC); conditions: Escherichia coli, read-out: Minimum inhibitory concentration (MIC)
[5] = Particulate matter in aqueous media (micrographs); format: physicochemical; conditions: 100 μg/mL in culture medium
Method: (§1) Morphometric analysis. Carbapenem-susceptible Kp233 were treated as described for stationary phase viability assays, with the exception that negative control wells contained no DMSO and no antimicrobials. Ampicillin (150 μg/mL) was used as a positive control. Cells were incubated statically at 37° C. for 4 hr. Thirty μL from each well was transferred into a 24-well plate filled with 300 μL of LB broth. Images were captured with a 40× magnification lens using a Nikon Eclipse TE2000-E microscope. Morphometric analysis was carried out using IPLab 4.0 software.

[6] = test system: HeLa S3 cells; assay: Alamar Blue assay for cytotoxicity; format: cell-based, human; conditions: 20 hours
Method: Alamar Blue assay for cytotoxicity. HeLa S3 cells were cultured in Dulbecco's modified Eagle medium supplemented with 10% fetal bovine serum, 100 U/mL penicillin, and 100 μg/mL streptomycin. Each well of a 96-well microtiter plate (Nunclon Delta Surface, Thermo Scientific) was seeded with 10,000 cells in 100 μL of culture medium. Cells were incubated for 18 hr in a humidified incubator at 37° C. with 5% CO2 to allow attachment. Compounds were added to the adherent cells to yield a final concentration of 13 and 107 μg/mL. Positive control wells contained 0.1% Triton X-100, carrier control wells contained DMSO, and negative control wells contained medium and cells without DMSO. After addition of compounds, 0.1% Triton, or DMSO, plates were returned to the incubator. Cell viability was measured by resazurin reduction. Alamar Blue reagent (Invitrogen) was added to the cells after a 1.5 hr incubation with the test compounds. Cells were incubated for 20 hr, and then fluorescence was measured using the Infinite 200 (Tecan) with excitation and emission wavelengths of 550 nm and 590 nm, respectively. To calculate viability, the average fluorescence value of Triton-treated positive control wells was subtracted from that of untreated wells or wells containing test compounds. These values were then divided by the average fluorescence of untreated wells to give cell viability as a percentage of the negative control.

[7] = test system: Group A streptococcus; assay: Minimum inhibitory concentration (MIC); conditions: read-out: Minimum inhibitory concentration (MIC)
[8] = test system: Kp233/pJBA110; assay: GFP fluorescence assay (protein synthesis); conditions: 15 hr
[9] = test system: K. pneumoniae (Kp233); assay: Morphometric analysis by phase contrast microscopy; format: cell-based, Klebsiella pneumoniae; conditions: stationary phase cells, 4 hr; compounds 100 μl/mI alone or with PAβN, ampicillin 150 μg/mL
Method: as §1

[10] = test system: CR K. pneumoniae strain BAA-1705; assay: Dose-response growth inhibition (viable cell counts in LB broth); conditions: 22 hr in LB broth, concentrations tested 0.78-50 μg/mL
[11] = test system: MRSA; assay: Minimum inhibitory concentration (MIC); conditions: Staphylococcus aureus, read-out: Minimum inhibitory concentration (MIC)
[12] = test system: K. pneumoniae strain BAA-1705; assay: High-throughput screen / dose-response based on mannose fermentation; conditions: for Inhibition of mannose fermentation: 22 hours, pH-DM, concentrations similar to primary and cherry-pick screens
[13] = test system: A. baumanii; assay: Minimum inhibitory concentration (MIC); conditions: for Minimum inhibitory concentration (MIC): A. baumanii, PAβN + (40 μg/mL); for MIC: Acinetobacter baumannii, read-out: Minimum inhibitory concentration (MIC)
[14] = test system: P. aeruginosa PA01; assay: Minimum inhibitory concentration (MIC); conditions: for Minimum inhibitory concentration (MIC): P. aeruginosa PA01, PAβN + (40 μg/mL); for MIC: Pseudomonas aeruginosa, PA01, read-out: Minimum inhibitory concentration (MIC)
[15] = test system: resistant GNR; assay: MIC with and without efflux pump inhibitor PAβN, resistant GNR as a group
[16] = test system: S. aureus teichoic acid biosynthesis; conditions: secondary screens, after a hit in the primary screen; cited from earlier work
[17] = test system: Lassa virus entry; conditions: PubChem BioAssay; cited from earlier work
[18] = target: Human tyrosyl-DNA phosphodiesterase 1 (TDP1) (Homo sapiens, UniProt Q9NUW8); conditions: PubChem BioAssay; cited from earlier work
Sequence of Human tyrosyl-DNA phosphodiesterase 1 (TDP1) (Q9NUW8 whole entry): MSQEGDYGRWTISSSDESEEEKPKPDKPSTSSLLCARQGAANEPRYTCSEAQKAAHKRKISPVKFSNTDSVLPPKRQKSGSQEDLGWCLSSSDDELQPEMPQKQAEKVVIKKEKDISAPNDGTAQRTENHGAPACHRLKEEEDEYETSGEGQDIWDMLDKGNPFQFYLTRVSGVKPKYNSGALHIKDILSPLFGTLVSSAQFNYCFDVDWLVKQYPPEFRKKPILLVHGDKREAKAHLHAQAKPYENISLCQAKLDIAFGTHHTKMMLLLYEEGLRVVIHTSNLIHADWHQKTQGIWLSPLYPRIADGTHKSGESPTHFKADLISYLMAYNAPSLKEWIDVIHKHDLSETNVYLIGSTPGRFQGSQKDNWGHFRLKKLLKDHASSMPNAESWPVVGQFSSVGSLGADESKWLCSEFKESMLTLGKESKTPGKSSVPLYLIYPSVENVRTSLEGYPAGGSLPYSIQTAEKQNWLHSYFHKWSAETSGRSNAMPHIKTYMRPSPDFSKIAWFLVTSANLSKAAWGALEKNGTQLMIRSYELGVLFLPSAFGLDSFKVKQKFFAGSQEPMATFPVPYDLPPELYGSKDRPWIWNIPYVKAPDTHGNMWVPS

[19] = test system: K. pneumoniae (Kp233); assay: Compound impact on bacterial viability (exponential and stationary phase); format: cell-based, Klebsiella pneumoniae; conditions: 4 hr; for Bacterial viability (CFU) with efflux pump inhibition: 100 μg/mL compound + PAβN 40 μg/ml
Method: Compound impact on bacterial viability. […] One hundred μL of each compound preparation was dispensed into the wells of a microtiter plate. Negative (untreated) wells contained LB with or without PAβN only. Stationary phase cell viability. A glycerol stock of the carbapenem-susceptible clinical strain of K. pneumoniae (Kp233) was inoculated into 1.5 mL of LB and incubated overnight (approximately 18 hr) at 37° C. with shaking. […] Cells were incubated statically at 37° C. for 4 hr, and viable counts were determined by plating. Exponential phase cell viability. Overnight cultures of Kp233 were diluted 1:5,000 into 50 mL of LB broth and incubated at 37° C. with shaking at 200 rpm. […] These cells were also washed twice with NS and inoculated into the wells of a microtiter plate prepared as described above. Cells were incubated statically at 37° C. for 4 hr, and viable counts were determined by plating.

[20] = target: LmGT2 (Leishmania mexicana, UniProt O61059); conditions: high-throughput screen, PubChem BioAssay; cited from earlier work
Sequence of LmGT2 (O61059 entry or part of it): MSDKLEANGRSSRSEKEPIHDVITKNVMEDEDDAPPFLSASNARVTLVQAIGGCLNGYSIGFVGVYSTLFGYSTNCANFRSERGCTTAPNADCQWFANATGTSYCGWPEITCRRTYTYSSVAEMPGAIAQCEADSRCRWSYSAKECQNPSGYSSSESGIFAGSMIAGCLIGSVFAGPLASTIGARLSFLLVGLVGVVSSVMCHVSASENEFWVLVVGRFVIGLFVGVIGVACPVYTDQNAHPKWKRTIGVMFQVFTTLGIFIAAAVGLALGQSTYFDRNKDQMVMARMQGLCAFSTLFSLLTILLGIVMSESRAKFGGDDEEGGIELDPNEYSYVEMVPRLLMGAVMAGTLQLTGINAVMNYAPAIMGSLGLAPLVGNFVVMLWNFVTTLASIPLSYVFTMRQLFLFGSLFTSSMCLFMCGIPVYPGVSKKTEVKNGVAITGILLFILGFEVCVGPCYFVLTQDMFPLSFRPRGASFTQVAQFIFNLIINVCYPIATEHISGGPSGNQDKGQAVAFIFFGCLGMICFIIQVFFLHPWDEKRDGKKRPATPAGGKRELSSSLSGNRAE

[21] = target: T1, Glut1 (Homo sapiens, UniProt P11166); conditions: high-throughput screen, PubChem BioAssay; cited from earlier work
T1 sequence (P11166 1-492): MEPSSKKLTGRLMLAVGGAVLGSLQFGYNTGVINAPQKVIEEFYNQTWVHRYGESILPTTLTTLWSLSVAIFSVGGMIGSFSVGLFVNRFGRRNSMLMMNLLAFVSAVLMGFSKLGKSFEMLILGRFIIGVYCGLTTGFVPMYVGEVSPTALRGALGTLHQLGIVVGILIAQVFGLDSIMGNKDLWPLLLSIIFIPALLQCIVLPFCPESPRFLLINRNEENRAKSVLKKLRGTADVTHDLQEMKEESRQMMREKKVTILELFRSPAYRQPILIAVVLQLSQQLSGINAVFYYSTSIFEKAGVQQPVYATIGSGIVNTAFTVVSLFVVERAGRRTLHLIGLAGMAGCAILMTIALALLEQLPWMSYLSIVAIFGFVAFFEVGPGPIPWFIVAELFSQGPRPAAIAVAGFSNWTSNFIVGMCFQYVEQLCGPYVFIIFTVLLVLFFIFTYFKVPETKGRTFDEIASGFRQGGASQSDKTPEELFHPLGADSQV

[22] = KP233, read-out: Minimum inhibitory concentration (MIC)
[23] = ATCCBAA1705, read-out: Minimum inhibitory concentration (MIC)
[24] = highest concentration used (100 μg/mL)
[25] = higher concentration (107 μg/mL)
[26] = exponential and stationary phase

Row | Compound | MIC [1, 22] | MIC [2] | Minimum inhibitory concentration (MIC) [3] | MIC [3, 23] | MIC [4] | Particulate matter in micrographs (insolubility in aqueous media) [5] | Toxicity to HeLa S3 cells (viability by resazurin reduction) ([6]; 13 and 107 μg/mL) | MIC [7] | Cell shape / average particle size [9] | MIC [11] | Minimum inhibitory concentration (MIC) [13] | MIC [13] | Minimum inhibitory concentration (MIC) [14] | MIC [14] | further results
1 | O=C(N[C@H](CO)[C@H](O)c1ccc([N+](=O)[O-])cc1)C(Cl)Cl [Cm, chloramphenicol, reference compound] | < 9 µg/mL | < 9 µg/mL | 39 µg/mL | 1250 µg/mL (≈ 3870 µM) | < 9 µg/mL |  |  |  |  |  |  |  |  |  | Reduction of MIC by PAβN ([3]; K. pneumoniae, with PAβN versus without): 32 fold
2 | Cc1nnc(SCC2=NN(c3nc4ccccc4[nH]3)C(=O)C2)s1 [Compound C17] | 48 µg/mL (≈ 139 µM) | 96 µg/mL (≈ 279 µM) | 48 µg/mL | 96 µg/mL (≈ 279 µM) | 96 µg/mL (≈ 279 µM) | not | least toxic; also recorded: not toxic | 96 µg/mL (≈ 279 µM) | do not significantly alter cell shape | 24 µg/mL (≈ 69.7 µM) | 24 µg/mL | > 96 µg/mL | 48 µg/mL | > 96 µg/mL | Bacterial growth (OD) and GFP fluorescence [8, 24]: decreased both bacterial growth and protein synthesis; Growth inhibition (CFU/ml) [10]: inhibited growth; Inhibition of mannose fermentation [12]: inhibited fermentation; Activity in cherry-pick re-test ([12]; dispensed by HP D300 digital dispenser): significant activity; Change of MIC on addition of PAβN (in words) [15]: minimally decreased
3 | Cc1nn2c(=O)cc(-c3ccc(F)cc3)[nH]c2c1-c1ccccc1 [Compound F02] |  |  |  |  |  |  |  |  |  |  |  |  |  |  | Toxicity to HeLa S3 cells (viability by resazurin reduction) [6, 25]: moderately toxic
4 | Cc1nn2c(=O)cc(-c3ccc(Cl)cc3)[nH]c2c1-c1ccccc1 [Compound N08] | > 96 µg/mL | > 96 µg/mL | 6 µg/mL | > 96 µg/mL | > 96 µg/mL | particulate matter was observed | minimal toxicity | > 96 µg/mL | do not significantly alter cell shape | < 0.75 µg/mL | 1.5 µg/mL | > 96 µg/mL | 12 µg/mL | > 96 µg/mL | Inhibition of teichoic acid biosynthesis [16]: not found to have this activity; Toxicity to HeLa S3 cells (viability by resazurin reduction) [6, 25]: moderately toxic; Bacterial growth (OD) and GFP fluorescence ([8]; low concentrations): interfered with GFP fluorescence but not growth; Inhibition of Lassa virus entry (screen) [17]: flagged; Inhibition of TDP1 (screen) [18]: flagged; Reduction of MIC by addition of PAβN [15]: 1-2 logs; Bacterial viability (CFU) with efflux pump inhibition [19, 26]: significantly potentiated the killing activity; also recorded: significantly decrease the viability
5 | Clc1cc(Br)ccc1-c1ccc(CNCC2CCNCC2)o1 [Compound O06] | 96 µg/mL (≈ 250 µM) | 96 µg/mL (≈ 250 µM) | 96 µg/mL | 96 µg/mL (≈ 250 µM) | 96 µg/mL (≈ 250 µM) | not | most toxic | 48 µg/mL (≈ 125 µM) | do not significantly alter cell shape | 48 µg/mL (≈ 125 µM) | 24 µg/mL | 48 µg/mL (≈ 125 µM) | 24 µg/mL | > 96 µg/mL | Bacterial growth (OD) and GFP fluorescence [8, 24]: decreased both bacterial growth and protein synthesis; Activity in screen for LmGT2 inhibitors [20]: active; Inhibition of mannose fermentation [12]: inhibited fermentation; Activity in screen for Glut1 inhibitors [21]: active; Change of MIC on addition of PAβN (in words) [15]: minimally decreased; Bacterial viability (CFU) with efflux pump inhibition [19, 26]: significantly potentiated the killing activity; also recorded: significantly decrease the viability; Bacterial viability (CFU) ([19]; 100 μg/mL compound alone, exponential and stationary phase): decreased the viability
6 | C[C@H]1COc2c(N3CCN(C)CC3)c(F)cc3c(=O)c(C(=O)O)cn1c23 [Lev, levofloxacin, reference compound] | 0.031 µg/mL (≈ 0.0858 µM) | 0.015 µg/mL (≈ 0.0415 µM) |  |  | 0.015 µg/mL (≈ 0.0415 µM) |  |  |  |  |  |  |  | 0.015 µg/mL | 0.25 µg/mL (≈ 0.692 µM) | Reduction of MIC by PAβN ([14]; P. aeruginosa, with PAβN versus without): 16 fold
7 | CC1(C)S[C@@H]2[C@H](NC(=O)[C@H](N)c3ccccc3)C(=O)N2[C@H]1C(=O)O [ampicillin, reference compound] |  |  |  |  |  |  |  |  | formed filaments with significantly increased average particle size |  |  |  |  |  | 
8 | O=C1C=C2C(=CCOC2O)O1 (centres unmarked) [patulin, reference compound] |  |  |  |  |  |  |  |  |  |  |  |  |  |  | Minimum inhibitory concentration ([1]; K. pneumoniae Kp233, Defined Medium): 9.38 µg/mL (≈ 60.9 µM); MIC ([1]; KP233, read-out: Minimum inhibitory concentration): 9.38 µg/mL (≈ 60.9 µM); MIC ([3]; ATCCBAA1705, read-out: Minimum inhibitory concentration, CR-K. pneumoniae ATCC BAA-1705, Defined Medium): 9.38 µg/mL (≈ 60.9 µM); MIC ([3]; ATCCBAA1705, read-out: Minimum inhibitory concentration, CR-K. pneumoniae ATCC BAA-1705, LB broth (rich medium)): 18.8 µg/mL (≈ 122 µM)
9 | phenylalanine-arginine β-naphthylamide [PAβN, reference compound] |  |  |  |  |  |  |  |  |  |  |  |  |  |  | Bacterial viability (CFU) ([19]; PAβN 40 μg/mL alone, exponential or stationary phase): did not decrease the viability

Reference: patent publication US12377079B2, “Antibacterial compounds and uses thereof” (The Children's Medical Center Corporation, priority 2018, dated 2025)
